Paper PMC11019550, “Potent Inhibition of E. coli DXP Synthase by a gem-Diaryl Bisubstrate Analog” (ACS Infectious Diseases, 2024)

Columns and labels:
R478A EcDXPS = target: T1, R478A EcDXPS (Escherichia coli, UniProt P77488, R478A); assay: IC50 determination for 8 on R478A EcDXPS variant; type: biochemical; conditions: 400 nM DXPS, 2 × Km pyruvate, 10 × Km D-GAP
T1 construct: made in house
Procedure: (§1) EcDXPS and IspC were preincubated with inhibitor for 10 min at 25 °C in assay reaction buffer (100 mM HEPES pH 8, 2 mM MgCl2, 5 mM NaCl, 1 mM ThDP, and 200 μM NADPH). Enzyme concentrations for variants were as follows: 200 nM DXPS (wildtype EcDXPS) and 4 μM IspC; 400 nM DXPS (R99A and R478A EcDXPS) and 6 μM IspC. The reaction was initiated by the addition of substrates at final concentrations of 2 × Km pyruvate and 10 × KmD-GAP. NADPH consumption was monitored at 340 nm for 10 min at 25 °C. The initial rate of NADPH consumption was used to determine the initial rate of DXP formation catalyzed by DXPS. Experiments were performed in triplicate and error bars represented standard error.

WT EcDXPS = target: T2, WT EcDXPS (Escherichia coli, UniProt P77488); assay: Circular dichroism titration (PLThDP formation, apparent KD) on WT EcDXPS; type: binding
T2 construct: made in house
Source text: The X-ray structure obtained from cocrystallization of DrDXPS with 1 (Figure 2) indicates the formation of the PLThDP adduct by reaction of the acetylphosphonate mimic of pyruvate with the C2 carbanion of ThDP. We reasoned that 8 should also engage the pyruvate binding site and react with ThDP to form a PLThDP adduct. Circular dichroism (CD) is a powerful tool that can be used to detect LThDP and LThDP-like adducts on thiamin-dependent enzymes,[56],[67]−[75] including DXPS.[31],[36],[43],[44],[49]−[52],[76] DXPS bound to ThDP (E-ThDP) is characterized by a CD λmin at 320 nm, indicative of the 4′-aminopyrimidine (AP) tautomer of ThDP (Figure 8A). Upon addition of pyruvate to E-ThDP, a new positive signal emerges at 313 nm, indicating the formation of LThDP in its 1′,4′-iminopyrimidine (IP) form. Similarly, upon addition of AP-based inhibitors to E-ThDP, the E-PLThDP adduct is formed, characterized by an increasing, broad CD signal.[69],[77],[78] Determination of apparent KD of PLThDP by plotting the CD signal corresponding to PLThDP versus [MAP] has been used as a proxy for PLThDP affinity.[77],[78] To confirm that 8 reacts with ThDP to form PLThDP in the DXPS active site, the change in CD signal upon addition of 8 (0.25–30 μM) to EcDXPS (30 μM) was measured. […] Plotting the CD signal at 294 nm versus affords a curve that approaches the limiting asymptotes defined by infinitely tight binding (Figure 8C),[79],[80] which is expected for this nanomolar inhibitor under the conditions of high [DXPS] required for this method. Since in this case [DXPS] ≫ KD^app, an accurate determination of KD^app is not possible, and data were fit to a quadratic equation to give an estimated upper limit for the value of KD^app (≤0.04 ± 0.01 μM). Addition of 10 to DXPS also results in an increased, broad CD signal (Figure S7A), indicating PLThDP formation. […]
CD titrations of 8 and 10 onto WT, R99A, and R478A EcDXPS variants were conducted at 25 °C under aerobic conditions in 1.5 mL solutions containing 30 μM EcDXPS in 50 mM HEPES pH 8, 100 mM NaCl, 1 mM MgCl2, and 0.2 mM ThDP. […] The CD signals at 294 nm determined from the difference spectra obtained by subtracting the signal of E-ThDP at 294 nm were plotted as a function of [inhibitor] and fit to (1) the quadratic equation described in eq 2 (8 on WT DXPS), where E is the concentration of DXPS taking into account stoichiometric binding and CDmax is the maximal CD signal, or (2) a one-site specific binding curve (all other experiments) using GraphPad Prism Version 9 to calculate an apparent KD. Experiments were conducted in triplicate and the standard error was calculated. […]
At the conclusion of the titration described above, the CD signal at 313 nm (previously characterized for LThDP) was recorded. […]

R99A EcDXPS = target: T3, R99A EcDXPS (Escherichia coli, UniProt P77488, R99A); assay: IC50 determination for 8 on R99A EcDXPS variant; type: biochemical; conditions: 400 nM DXPS, 2 × Km pyruvate, 10 × Km D-GAP
T3 construct: made in house
Procedure: as §1

For `CC(=O)P(=O)(O)OCCc1cn(C(Cc2ccccc2)(Cc2ccccc2)C(=O)O)nn1` [Compound 8], the IC50 (R478A EcDXPS) was 1.01 ± 0.381 µM, the Kd (WT EcDXPS) was no more than 0.04 µM and the “change in PLThDP CD signal upon addition of 1 mM pyruvate” value (WT EcDXPS; WT EcDXPS 30 μM, inhibitor 30 μM) was “negligible shift in the CD signal”. The IC50 (R99A EcDXPS) was 3.007 ± 0.015 µM.
